Data reported in patent publication US20070213408A1, “Use of Acetyl L-Carnitine for the Preparation of a Medicine for the Treatment of Neuropathic Pain in Diabetic Patients” (SIGMA-TAU INDUSTRIE FARMACEUTICHE RIUNITE S.P.A., priority 2004, published 2007).

How the values were obtained:
[1] = system: Patients with type 2 diabetes on insulin treatment; assay: Double-blind placebo-controlled clinical trials in diabetic peripheral neuropathy, VAS pain assessment, patients on insulin; format: in vivo, human; details: 52 weeks
Protocol: (§1) Two double-blind placebo-controlled clinical trials, identical in their experimental design, were conducted in patients with diagnoses of diabetic peripheral neuropathy selected according to the criteria established in the San Antonio, Tex. conference (Diabetes 37:1000-1004, 1988).
(§2) Acetyl L-carnitine was administered orally at doses of 1.5 g/day and 3.0 g/day for continuously for 52 weeks.
(§3) One objective of the studies consisted in the possible modification of the Visual Analogue Scale (VAS) (Scott J. Huskisson EC. Graphic representation of pain. Pain 1976;2:175-184) in the subjective assessment of pain symptoms and the main sensorimotor clinical parameters.
The second population comprised patients with type 2 diabetes treated with insulin. Here, too, the population included a placebo group (Group 4) matching up to the same inclusion criteria as the patients treated with acetyl L-carnitine (on insulin treatment).

[2] = system: patients with diabetic neuropathy; details: 120 patients with diabetic neuropathy; cited from earlier work
[3] = system: patients with diabetic neuropathy; details: approximately 200 patients with diabetic neuropathy; cited from earlier work
[4] = system: Patients with type 2 diabetes not on insulin treatment; assay: Double-blind placebo-controlled clinical trials in diabetic peripheral neuropathy, VAS pain assessment, patients not on insulin; format: in vivo, human; details: for VAS: 52 weeks
Protocol: as §1, §2, §3

[5] = system: type I and II diabetics with symmetrical distal polyneuropathy or multineuropathy; details: treated patients out of 333 recruited; cited from earlier work

## CC(=O)O[C@H](CC(=O)[O-])C[N+](C)(C)C [Acetyl L-carnitine, acetyl L-carnitine]
[1]; 1.5 g/die orally, n = 41 pts
  VAS: 16.8 ± 30.1
[1]; 3.0 g/day orally, n = 57 pts
  VAS: 25.9 ± 31.2
[2]
  improvement in symptoms: distinct improvement in symptoms
[3]
  difference between acetyl L-carnitine and placebo: failed to show any significant difference
[4]; 1.5 g/day orally, n = 39 pts
  VAS: 7.6 ± 34.7
[4]; 3.0 g/day orally, n = 40 pts
  VAS: 24.2 ± 32.3
[4]; end of treatment, active only at higher dose (3 g/day)
  activity compared to the placebo group: active in a dose-related manner
[5]
  patients presenting an improvement in pain symptoms: 39%
